How the values were obtained:
GSK-3β = GSK-3β (Homo sapiens (Human), UniProt P49841); assay: GSK-3β kinase assay (Millipore IC50Profiler); assay type: biochemical
Method: (§1) GSK-3β, VEGFR-2, FLT-3, Kinase Assays
(§2) The effect of test compounds on the activity of the protein kinases GSK-3β, VEGFR-2 and FLT-3 was evaluated based on half maximal inhibitory concentration (IC50) values determined by Millipore UK Ltd; Gemini Crescent; Dundee Technology Park; Dundee DD2 1SW; UK (IC50Profiler). Detailed protocols can be found at: www.millipore.com/drugdiscovery/dd3/assayprotocols.
(§3) The inhibitory effect of test compounds on protein kinases VEGFR-2, FLT-3 and GSK-3β was investigated using respective kinase inhibition assays (method described above) and the values of half maximal inhibitory concentration (IC50) were determined from the assay results. […] Thus, compounds with selective kinase profiles were identified, which may allow application specific for a certain tumor or condition while showing less side-effects caused by activity against other kinases.

[1] = In vitro hepatic microsome stability; assay type: in vitro ADME; conditions: rat liver microsomes in Tris buffer
Method: Metabolic conversion was evaluated by incubating compounds of the invention (test compounds) with rat liver microsomes (BD Biosciences) in Tris buffer.

FLT-3 = FLT-3 (Homo sapiens (Human), UniProt P36888); assay: FLT-3 kinase assay (Millipore IC50Profiler); assay type: biochemical
Method: as §1, §2, §3

VEGFR-2 = VEGFR-2 (Homo sapiens (Human), UniProt P35968); assay: VEGFR-2 kinase assay (Millipore IC50Profiler); assay type: biochemical
Source text: as §1
Detailed protocols can be found at: www.millipore.com/drugdiscovery/dd3/assayprotocols.

[2] = system: HT-29 human colon adenocarcinoma cells; assay: MTT assay, antiproliferative effect; assay type: cell-based; conditions: HT-29, 72 h, 3 days, read-out: Viability of HT-29 cells as determined by MTT assay
Method: Evaluation of Antiproliferative Effect (MTT Assay)
The antiproliferative activity of test compounds was determined by the 3-(4,5-dimethylthiazol-2-yl)-2,5-diphenyltetrazolium bromide (MTT) assay as described previously (Mosmann, T. et al. (1983) J. Immunol. Methods 65: 55-63). Cells in the exponential growth phase were transferred to 96-well flat-bottomed plates. 10,000 viable cells contained in 200 μl cell suspension were plated into each well and incubated over night. Cells were then exposed to various concentrations of test compounds (100 μl/well) for 3 days at 37° C. with 5% CO2. Subsequently, 10 μl/well MTT stock solution (5 mg/ml; Biomol, Germany) were added and the cells were incubated at 37° C. with 5% CO2 for 4 hours. 100 μl solubilization solution (10% SDS in 0.01 M HCl) were added and the cells were incubated at 37° C. with 5% CO2 over night. Plates were read on an ELISA-Reader ELX 800 (BIO-TEK Software KC 4) at 562 nm absorbance. Each experiment was done in triplicate.
(§4) Working solutions of 26 mM test compound in DMSO were prepared and stored in aliquots at −20° C. A 29.6 mM stock solution of irinotecan in water was prepared and stored in aliquots at 4° C. The drugs were diluted in culture medium immediately before use to obtain the desired concentrations.
(§5) The human colon cancer cell line HT-29 was obtained from the DSMZ, Germany. […] cells were cultured in RPMI 1640 supplemented with 10% FCS at 37° C. and 5% CO2.
The antitumor activity of test compounds was examined against HT-29 human colon adenocarcinoma cells using MTT assay (method described above).

HT-29 cells = assay: Nicoletti apoptosis assay by cell cycle analysis (sub-G1 fraction); assay type: cell-based, human; conditions: 7 days
Method: Nicoletti Apoptosis Assay by Cell Cycle Analysis
Cancer cells were transferred to 12-well flat-bottomed plates. 1.5×10^5 viable cells contained in 1 ml cell suspension were plated into each well and incubated over night before exposure with various concentrations of drugs. Subsequently, cells were incubated in 1 ml medium containing various concentrations of test compounds at 37° C. with 5% CO2. After incubation the cells were washed with PBS, trypsinized, pelleted and mixed with PI buffer (containing 0.1% sodium citrate, 0.1% triton X-100, […] propidium iodide (PI)) and incubated for 1 hour at 4° C. Cell cycle sub-G1 fraction analysis was performed as described previously (Nicoletti, I. et al. (1991) J. Immunol. Methods 139: 271-279) using a flow cytometer (BD FACS Calibur™, BD Biosciences, Heidelberg, Germany). Each experiment was done in triplicate.
as §4, §5
Compounds of the invention (test compounds) and the topoisomerase I inhibitor irinotecan were analyzed for their individual and combined effect in apoptosis assay (method described above). Induction of apoptosis was determined by cell cycle analysis (% sub-G1 fraction) after incubating HT-29 cells with test compounds, irinotecan or combinations thereof, respectively, for 7 days.

[3] = 8 μM test compound plus 1.18 μM irinotecan

Sequence of FLT-3 (P36888 27-993): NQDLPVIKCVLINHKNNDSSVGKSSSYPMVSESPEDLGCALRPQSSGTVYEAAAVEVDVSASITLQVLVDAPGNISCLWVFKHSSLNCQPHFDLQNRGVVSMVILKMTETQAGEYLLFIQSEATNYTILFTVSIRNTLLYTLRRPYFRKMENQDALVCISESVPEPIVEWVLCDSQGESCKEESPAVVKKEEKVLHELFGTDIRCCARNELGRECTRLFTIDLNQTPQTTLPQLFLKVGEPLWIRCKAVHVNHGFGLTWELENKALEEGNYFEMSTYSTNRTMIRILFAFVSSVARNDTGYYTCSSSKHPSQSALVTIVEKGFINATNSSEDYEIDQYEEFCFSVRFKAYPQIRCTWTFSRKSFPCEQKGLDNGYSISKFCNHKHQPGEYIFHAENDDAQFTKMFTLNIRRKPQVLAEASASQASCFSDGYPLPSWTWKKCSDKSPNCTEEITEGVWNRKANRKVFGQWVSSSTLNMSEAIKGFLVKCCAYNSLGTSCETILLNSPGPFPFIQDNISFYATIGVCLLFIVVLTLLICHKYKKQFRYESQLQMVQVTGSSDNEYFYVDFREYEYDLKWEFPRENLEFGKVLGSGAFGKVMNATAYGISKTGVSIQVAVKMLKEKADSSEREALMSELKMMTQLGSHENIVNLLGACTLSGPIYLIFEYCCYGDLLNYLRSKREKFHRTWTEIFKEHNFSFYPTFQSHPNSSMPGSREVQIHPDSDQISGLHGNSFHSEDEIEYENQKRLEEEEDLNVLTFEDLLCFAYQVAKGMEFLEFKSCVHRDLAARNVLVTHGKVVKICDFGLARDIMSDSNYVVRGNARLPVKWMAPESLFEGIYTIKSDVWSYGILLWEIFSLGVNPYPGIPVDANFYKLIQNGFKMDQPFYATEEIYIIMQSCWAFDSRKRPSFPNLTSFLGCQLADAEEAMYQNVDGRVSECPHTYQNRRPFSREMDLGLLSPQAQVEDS
Sequence of VEGFR-2 (P35968 20-1356): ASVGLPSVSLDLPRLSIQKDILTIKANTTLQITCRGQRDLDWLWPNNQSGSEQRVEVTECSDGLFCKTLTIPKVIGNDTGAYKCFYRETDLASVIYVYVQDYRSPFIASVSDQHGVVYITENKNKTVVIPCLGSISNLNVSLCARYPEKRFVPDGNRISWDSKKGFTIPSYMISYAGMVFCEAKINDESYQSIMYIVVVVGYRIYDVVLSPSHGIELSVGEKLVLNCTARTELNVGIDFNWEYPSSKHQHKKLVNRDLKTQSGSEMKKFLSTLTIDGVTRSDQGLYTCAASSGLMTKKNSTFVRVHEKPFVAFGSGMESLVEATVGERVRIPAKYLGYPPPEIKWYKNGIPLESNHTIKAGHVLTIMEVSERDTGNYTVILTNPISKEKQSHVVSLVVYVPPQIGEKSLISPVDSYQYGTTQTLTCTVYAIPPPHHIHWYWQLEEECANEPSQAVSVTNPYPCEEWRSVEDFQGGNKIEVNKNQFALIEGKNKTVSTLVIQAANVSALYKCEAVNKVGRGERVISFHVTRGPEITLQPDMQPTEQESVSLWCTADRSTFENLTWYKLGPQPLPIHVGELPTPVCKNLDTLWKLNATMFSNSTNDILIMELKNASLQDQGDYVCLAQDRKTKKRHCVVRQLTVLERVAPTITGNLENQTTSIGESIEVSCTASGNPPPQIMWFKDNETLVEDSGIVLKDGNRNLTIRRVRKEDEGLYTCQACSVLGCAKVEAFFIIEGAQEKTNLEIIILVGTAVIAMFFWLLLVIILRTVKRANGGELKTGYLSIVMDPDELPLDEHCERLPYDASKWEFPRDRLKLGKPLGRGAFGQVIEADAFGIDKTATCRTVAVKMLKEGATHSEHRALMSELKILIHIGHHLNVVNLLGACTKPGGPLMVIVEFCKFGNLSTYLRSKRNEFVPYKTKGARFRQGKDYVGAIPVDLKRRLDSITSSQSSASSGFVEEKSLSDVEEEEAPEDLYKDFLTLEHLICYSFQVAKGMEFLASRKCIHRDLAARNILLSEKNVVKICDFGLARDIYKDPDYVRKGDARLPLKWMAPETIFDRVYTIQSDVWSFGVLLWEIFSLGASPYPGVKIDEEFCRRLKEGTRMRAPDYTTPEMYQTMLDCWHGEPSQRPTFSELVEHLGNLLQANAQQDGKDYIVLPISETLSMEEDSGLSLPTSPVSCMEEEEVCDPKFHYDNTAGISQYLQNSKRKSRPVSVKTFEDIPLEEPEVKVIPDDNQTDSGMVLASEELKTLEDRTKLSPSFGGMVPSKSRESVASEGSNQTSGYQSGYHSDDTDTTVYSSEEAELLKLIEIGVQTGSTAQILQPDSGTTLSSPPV
Sequence of GSK-3β (P49841 whole entry): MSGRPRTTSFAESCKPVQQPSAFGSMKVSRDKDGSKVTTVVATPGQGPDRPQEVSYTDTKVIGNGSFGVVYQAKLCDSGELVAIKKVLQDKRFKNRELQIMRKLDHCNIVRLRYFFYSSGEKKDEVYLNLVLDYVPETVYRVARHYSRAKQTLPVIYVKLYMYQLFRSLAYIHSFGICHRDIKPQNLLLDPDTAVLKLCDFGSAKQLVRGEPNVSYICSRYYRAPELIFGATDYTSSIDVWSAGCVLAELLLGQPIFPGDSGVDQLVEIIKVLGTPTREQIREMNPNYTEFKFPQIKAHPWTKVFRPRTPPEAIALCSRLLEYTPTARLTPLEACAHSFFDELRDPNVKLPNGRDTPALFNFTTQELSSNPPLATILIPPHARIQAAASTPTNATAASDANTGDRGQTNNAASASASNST

For `COc1cc(C2=C(c3c[nH]c4ccccc34)C(=O)NC2=O)cc(OC)c1OC` [Compound Z1, 3-(1-H-indol-3-yl)-4-(3,4,5-trimethoxyphenyl)-1H-pyrrole-2,5-dione], the IC50 (GSK-3β) was greater than 1000 nM, the “Metabolic conversion (degradation, metabolite formed)” value (shortened to “Metabolic conversion”) [1] was “metabolized to form metabolite Z2” and the IC50 (FLT-3) was 270 nM. The IC50 (VEGFR-2) was 90 nM.

With `COc1cc(C2=C(c3cn(CCOC(=O)C(N)CC(C)C)c4ccccc34)C(=O)NC2=O)cc(OC)c1OC` (stereo not shown) [Compound D, 2-(3-(2,5-Dioxo-4-(3,4,5-trimethoxyphenyl)-2,5-dihydro-1H-pyrrol-3-yl)-1H-indol-1-yl)ethyl 2-amino-4-methylpentanoate] the viability at 1 µM [2] was 104 ± 6.4%, the viability at 10 µM [2] was 99.4 ± 8.3% and the viability at 20 µM [2] was 94.5 ± 8.3%. For the same compound, the viability at 50 µM [2] was 65.3 ± 3.3%, the “Sub-G1 Fraction” value (HT-29 cells; 8 μM test compound only) was 6.2 ± 0.8% and the “Sub-G1 Fraction” value (HT-29 cells; [3]) was 44.5 ± 1.5%. The IC50 (GSK-3β) was 12 nM, the “Metabolic conversion” value [1] was “yield metabolite D1” and the IC50 (FLT-3) was 239 nM. It also gave an IC50 (VEGFR-2) of 251 nM.

Work on `COc1cc(C2=C(c3cn(CCCNC(=O)C(N)CC(C)C)c4ccccc34)C(=O)NC2=O)cc(OC)c1OC` (stereo not shown) [Compound A, 2-Amino-N-(3-(3-(2,5-dioxo-4-(3,4,5-trimethoxyphenyl)-2,5-dihydro-1H-pyrrol-3-yl)-1H-indol-1-yl)propyl)-4-methylpentanamide] yielded a viability at 1 µM [2] of 94.9 ± 4.6%, a viability at 10 µM [2] of 68.7 ± 0.9% and a viability at 20 µM [2] of 59.2 ± 5.4%. The viability at 50 µM [2] was 26 ± 8.9%, the “Sub-G1 Fraction” value (HT-29 cells; 8 μM test compound only) was 7.4 ± 0.5% and the “Sub-G1 Fraction” value (HT-29 cells; [3]) was 38.9 ± 2.8%. The IC50 (GSK-3β) was 208 nM, the IC50 (FLT-3) was no less than 1000 nM and the IC50 (VEGFR-2) was no less than 1000 nM.

For `COc1cc(C2=C(c3cn(CCCO)c4ccccc34)C(=O)NC2=O)cc(OC)c1OC` [Compound D1, 3-(1-(3-hydroxypropyl)indol-3-yl)-4-(3,4,5-trimethoxyphenyl)-1H-pyrrole-2,5-dione], the “Metabolic conversion” value [1] was “upon further degradation gave compound Z1”.

For `COc1cc(C2=C(c3cn(CCCO)c4ccccc34)C(=O)NC2=O)cc(OC)c1OC` [Compound C1, 3-(1-(3-hydroxypropyl)indol-3-yl)-4-(3,4,5-trimethoxyphenyl)-1H-pyrrole-2,5-dione], the IC50 (GSK-3β) was 2250 nM, the “Metabolic conversion” value [1] was “gave its metabolite Z1” and the IC50 (FLT-3) was 556 nM.

With `CCc1c2c(nc3ccc(OC(=O)N4CCC(N5CCCCC5)CC4)cc13)-c1cc3c(c(=O)n1C2)COC(=O)[C@]3(O)CC` [irinotecan, reference compound] the “Sub-G1 Fraction” value (HT-29 cells; 1.18 μM irinotecan only) was 26.1 ± 2.1%.

In the case of `COc1cc(C2=C(c3cn(CCCOC(=O)C(N)CC(C)C)c4ccccc34)C(=O)NC2=O)cc(OC)c1OC` (stereo not shown) [Compound C, 3-(3-(2,5-Dioxo-4-(3,4,5-trimethoxyphenyl)-2,5-dihydro-1H-pyrrol-3-yl)-1H-indol-1-yl)propyl 2-amino-4-methylpentanoate], the viability at 1 µM [2] is reported as 96.7 ± 3.3%, the viability at 10 µM [2] is reported as 49.3 ± 1.1% and the viability at 20 µM [2] is reported as 51 ± 2.3%. The “Sub-G1 Fraction” value (HT-29 cells; 8 μM test compound only) was 6.6 ± 0.4%, the “Sub-G1 Fraction” value (HT-29 cells; [3]) was 39.2 ± 0.7% and the IC50 (GSK-3β) was 134 nM. The “Metabolic conversion” value [1] was “time dependent degradation”, the IC50 (FLT-3) was 480 nM and the IC50 (VEGFR-2) was no less than 1000 nM.

Reference: patent US8957103B2, “Conjugated 3-(indolyl)- and 3-(azaindolyl)-4-arylmaleimide compounds and their use in tumor treatment” (Johannes Gutenberg—Universitat Mainz, priority 2010, dated 2015)
